Laboratory results published in patent US4272437A, “Antibacterial agents, and 4-thio azetidinone intermediates” (priority 1979, dated 1981).
Values after ≈ are worked out from the molar mass of the structure shown. Where two headings read alike, the source gives them in different places.

Tests used:
[1] = tested on: Proteus vulgaris A21559; experiment: MIC, tube dilution, Proteus vulgaris A21559; type: cell-based; conditions: Proteus vulgaris, A21559, Proteus vulgaris A21559; overnight 37° C.; read-out: Minimum Inhibitory Concentration (M.I.C.)
From the text: (§1) Representative compounds of the present invention were subjected to in vitro antibiotic screening against a variety of microorganisms.

[2] = tested on: S. aureus A9537; experiment: In vivo protection of mice, lethal infection with S. aureus A9537; conditions: Staphylococcus aureus, 2 treatments, read-out: PD50
Method: Representative compounds of the present invention were also tested in vivo in mice and their PD50 (dose of compound in mg/kg required to protect 50% of the treated mice against an otherwise lethal infection of a micro-organism) values determined with respect to the test organisms shown below.

[3] = tested on: Str. pyogenes A-9604; experiment: MIC, tube dilution, Streptococcus pyogenes A9604; type: cell-based; conditions: Streptococcus pyogenes, A9604, Str. pyogenes A9604; overnight 37° C., Nutrient Broth; read-out: Minimum Inhibitory Concentration (M.I.C.)
From the text: as §1

SMILES: NCCCCC1=C(C(=O)O)N2C(=O)CC2S1 (stereo not drawn) [Example 73, 2-(4'-Aminobutyl)-penem-3-carboxylic Acid]
- MIC [1]: 32 µg/mL (≈ 132 µM)
- ED50 ([2]; A9537, im, IM, 1 × 10^6 organisms): 0.2 mg/kg
- ED50 ([2]; A9537, im, IM, 6.8 × 10^5 organisms): 0.2 mg/kg
- ED50 ([2]; A9537, im, IM, 8 × 10^5 organisms): 0.2 mg/kg
- ED50 ([2]; A9537, po, PO, 1 × 10^6 organisms): 0.5 mg/kg
- MIC [3]: 0.25 µg/mL (≈ 1.03 µM)
